Tests used:
[1] = molecular target: CLK1 (Homo sapiens, UniProt P49759); assay: coupled-enzyme kinase assay at […] inhibitor; thermal shift […]°C; format: biochemical
[2] = molecular target: T1, CLK3 (Homo sapiens, UniProt P49761); assay: kinase assay at […] inhibitor; thermal shift screening; format: biochemical
T1 construct: kinase domain, residues 127–484
T1 sequence (P49761 127-484): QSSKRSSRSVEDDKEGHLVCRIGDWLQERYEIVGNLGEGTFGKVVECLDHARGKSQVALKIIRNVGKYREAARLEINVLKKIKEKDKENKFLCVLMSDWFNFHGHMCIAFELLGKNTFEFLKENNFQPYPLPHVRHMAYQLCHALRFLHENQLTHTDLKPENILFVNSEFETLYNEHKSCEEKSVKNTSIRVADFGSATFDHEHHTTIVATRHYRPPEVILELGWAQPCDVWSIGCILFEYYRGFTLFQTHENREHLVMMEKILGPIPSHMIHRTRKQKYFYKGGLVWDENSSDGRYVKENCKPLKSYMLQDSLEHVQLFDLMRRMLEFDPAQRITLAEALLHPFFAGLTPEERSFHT

CLK1, sequence (P49759 148-484): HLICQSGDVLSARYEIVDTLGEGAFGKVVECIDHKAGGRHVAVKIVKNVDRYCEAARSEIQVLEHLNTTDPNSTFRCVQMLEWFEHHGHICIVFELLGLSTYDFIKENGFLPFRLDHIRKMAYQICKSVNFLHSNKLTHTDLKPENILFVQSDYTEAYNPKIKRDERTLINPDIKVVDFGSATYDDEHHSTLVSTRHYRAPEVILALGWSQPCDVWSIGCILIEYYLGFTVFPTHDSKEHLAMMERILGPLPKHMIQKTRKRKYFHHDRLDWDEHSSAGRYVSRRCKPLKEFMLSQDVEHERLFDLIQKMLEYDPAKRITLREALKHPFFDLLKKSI

Compound: Nc1nc(Nc2ccc(S(N)(=O)=O)cc2)nn1C(=S)Nc1c(F)cccc1F [compound 11, CDK1/2 inhibitor]
- % activity at 100 nM [1]: < 1
- % activity at 100 nM [2]: < 50
